According to US9063143B2, “Cancer platinum resistance detection and sensitization method” (University of South Florida, priority 2008, dated 2015):

Columns and labels:
Experiment in all cases: MTT cell proliferation assay, cisplatin resistance
Assay type in all cases: cell-based
Conditions in all cases: MTT proliferation rate at 2 μg/mL
[1] = system: OVCAR5 ovarian cancer cell line
Experimental: (§1) Ovarian cancer cell lines (C13, OV2008, A2780S, A2780CP, IGROV1, T8, A2008, IOSER, and OVCAR5) were grown in RPMI-1640 supplemented with 10% fetal bovine serum, 1% sodium pyruvate, and 1% nonessential amino acids. IOSER cells were grown in 1:1 MCBD105 and Medium 199, HEPES, Bovine Pituitary Extract, Insulin, hEGF, hydrocortisone and 15% FBS. All tissue culture reagents were obtained from Sigma Aldrich (St Louis, Mo.). Cells were maintained in a CO2 incubator at 37° C. and subcultured at 70% confluence. The cell lines consist of two from the NCI60 panel: IGR-OV1 (doubling time 31) and OVCAR-5 (doubling time 48.8). Several cell lines have mother/daughter relationships including A2008 and daughter C13; as well as A2780S/A2780CP.
(§2) To induce the development of platinum-resistance, the nine ovarian cancer cell lines were subjected to serial treatments with increasing dose cisplatin (Group A: 1 and 3 μg/mL, Group B: 2 and 4 μg/mL, and Group C: 3 and 5 μg/mL) using a protocol previously described by Hong et al (Antisense Bcl2 oligonucleotide in cisplatin-resistant bladder cancer cell lines. BJU Int. 2002 July; 90(1):113-7). For each of the 9 cell lines, three different dosage schedules were used: Schedule A—3 treatment/recovery cycles at 1 μg/mL, followed by 3 treatment/recovery cycles at 3 μg/mL; Schedule B—3 treatment/recovery cycles at 2 μg/mL, followed by 3 treatment/recovery cycles at 4 μg/mL; Schedule C—3 treatment/recovery cycles at 3 μg/mL, followed by 3 treatment/recovery cycles at 5 μg/mL. After each treatment, cells were allowed to recover before re-treatment. Gene expression analysis was performed prior to treatment, after 3 and 6 treatments. The experiment design and notations used for each treatment schedule are outlined in Table 1.
(§3) Thus, for each of the 9 cell lines, 3 different starting doses of cisplatin were used with three different recovery cycles, such that a total of 162 treatment/recovery cycles were induced. Increasing platinum-resistance was confirmed by MTT cell proliferation assays prior to cisplatin treatment, and after 3 and 6 treatment/recovery cycles (for each treatment schedule).
(§4) MTT solution was produced by dissolving 3-(4,5-Dimethylthiazol-2-yl)-2,5-diphenyltetrazolium bromide (MTT; Sigma, St. Louis, Mo., USA) in phosphate-buffered saline (PBS; 5 mg/mL). Cells (1×10^3) were incubated with 100 μL of culture medium for 48 h in 96-well plates, and 100 μL of MTT solution with RPMI media in a 1:10 concentration was added to each well. After 4 h of incubation, medium was decanted. 100 μL of acidified isopropanol was added to each well. […] MTT assays were performed independently in triplicate per each experimental time point and means reported. For each cell line at each time-point for each schedule, an IC50 was calculated using MTT assay, as well as a percent cell survival at a fixed cisplatin concentration (based upon the mid-point of the log-phase of the dose-response curve for each cell line at baseline), seen in Table 2.
(§5) Prior to treatment (baseline), and at each dose level following treatment (3 and 6 treatment/recovery cycles) and cell recovery, RNA was extracted and genome-wide expression analysis performed using U133 plus 2.0 Affymetrix chips and cisplatin-resistance was quantified using MTT assay. In parallel, at each of these time-points, RNA was extracted and genome-wide expression analysis performed using U133 plus 2.0 Affymetrix chips. Array analysis was performed on 72 samples. Following recovery from each dose level, cells were evaluated for platinum-resistance using MTT proliferation assay, seen in Table 3. Cell line recovery was defined as the time taken for the cells to repopulate in a normal fashion (to reach 70% confluence in 48 hours). Cell line proliferation rate at 2 μg/mL was used as a measure of resistance.

[2] = system: IGROV1 ovarian cancer cell line
Experimental: as §1, §2, §3, §4, §5

[3] = system: OV2008 ovarian cancer cell line
Experimental: as §1, §2, §3, §4, §5

IOSER cells = system: IOSER cells
Experimental: as §1, §2, §3, §4, §5

[4] = system: C13 ovarian cancer cell line
Experimental: as §1, §2, §3, §4, §5

[5] = system: A2780S ovarian cancer cell line
Experimental: as §1, §2, §3, §4, §5

[6] = system: A2008 ovarian cancer cell line
Experimental: as §1, §2, §3, §4, §5

[7] = system: T8 ovarian cancer cell line
Experimental: as §1, §2, §3, §4, §5

[8] = system: A2780CP ovarian cancer cell line
Experimental: as §1, §2, §3, §4, §5

## N.N.[Cl][Pt][Cl] [cisplatin]
[1]; OVCAR5 after cisplatin regimen 1.33
  Cell population measurements: 49
[1]; OVCAR5 after cisplatin regimen 2.33
  Cell population measurements: 41
[1]; OVCAR5 after cisplatin regimen 3.33
  Cell population measurements: 47
[1]; OVCAR5 after cisplatin regimen 3.36
  Cell population measurements: 66.5
[1]; OVCAR5 after cisplatin regimen 4.36
  Cell population measurements: 69
[1]; OVCAR5 after cisplatin regimen 5.36
  Cell population measurements: 63
[2]; IGROV1 after cisplatin regimen 1.33
  Cell population measurements: 69
[2]; IGROV1 after cisplatin regimen 2.33
  Cell population measurements: 48
[2]; IGROV1 after cisplatin regimen 3.33
  Cell population measurements: 55
[2]; IGROV1 after cisplatin regimen 3.36
  Cell population measurements: 68.3
[2]; IGROV1 after cisplatin regimen 4.36
  Cell population measurements: 69
[2]; IGROV1 after cisplatin regimen 5.36
  Cell population measurements: 58
[3]; OV2008 after cisplatin regimen 1.33
  Cell population measurements: 62
[3]; OV2008 after cisplatin regimen 2.33
  Cell population measurements: 54
[3]; OV2008 after cisplatin regimen 3.33
  Cell population measurements: 67
[3]; OV2008 after cisplatin regimen 3.36
  Cell population measurements: 64.8
[3]; OV2008 after cisplatin regimen 4.36
  Cell population measurements: 98
[3]; OV2008 after cisplatin regimen 5.36
  Cell population measurements: 86
IOSER cells; IOSER after cisplatin regimen 1.33
  Cell population measurements: 62
IOSER cells; IOSER after cisplatin regimen 2.33
  Cell population measurements: 70
IOSER cells; IOSER after cisplatin regimen 3.33
  Cell population measurements: 79
IOSER cells; IOSER after cisplatin regimen 3.36
  Cell population measurements: 89
IOSER cells; IOSER after cisplatin regimen 4.36
  Cell population measurements: 71
IOSER cells; IOSER after cisplatin regimen 5.36
  Cell population measurements: 84
[4]; C13 after cisplatin regimen 1.33
  Cell population measurements: 83
[4]; C13 after cisplatin regimen 2.33
  Cell population measurements: 73
[4]; C13 after cisplatin regimen 3.33
  Cell population measurements: 71
[4]; C13 after cisplatin regimen 3.36
  Cell population measurements: 53
[4]; C13 after cisplatin regimen 4.36
  Cell population measurements: 91
[4]; C13 after cisplatin regimen 5.36
  Cell population measurements: 67
[5]; A2780S after cisplatin regimen 1.33
  Cell population measurements: 26
[5]; A2780S after cisplatin regimen 2.33
  Cell population measurements: 39
[5]; A2780S after cisplatin regimen 3.33
  Cell population measurements: 64
[5]; A2780S after cisplatin regimen 3.36
  Cell population measurements: 30.5
[5]; A2780S after cisplatin regimen 4.36
  Cell population measurements: 87
[5]; A2780S after cisplatin regimen 5.36
  Cell population measurements: 72
[6]; A2008 after cisplatin regimen 1.33
  Cell population measurements: 19
[6]; A2008 after cisplatin regimen 2.33
  Cell population measurements: 33
[6]; A2008 after cisplatin regimen 3.33
  Cell population measurements: 25
[6]; A2008 after cisplatin regimen 3.36
  Cell population measurements: 25.6
[6]; A2008 after cisplatin regimen 4.36
  Cell population measurements: 29
[6]; A2008 after cisplatin regimen 5.36
  Cell population measurements: 37
[7]; T8 after cisplatin regimen 1.33
  Cell population measurements: 42
[7]; T8 after cisplatin regimen 2.33
  Cell population measurements: 64
[7]; T8 after cisplatin regimen 3.33
  Cell population measurements: 67
[7]; T8 after cisplatin regimen 3.36
  Cell population measurements: 68.4
[7]; T8 after cisplatin regimen 4.36
  Cell population measurements: 69
[7]; T8 after cisplatin regimen 5.36
  Cell population measurements: 62
[8]; A2780CP after cisplatin regimen 1.33
  Cell population measurements: 84
[8]; A2780CP after cisplatin regimen 2.33
  Cell population measurements: 100
[8]; A2780CP after cisplatin regimen 3.33
  Cell population measurements: 91
[8]; A2780CP after cisplatin regimen 3.36
  Cell population measurements: 100
[8]; A2780CP after cisplatin regimen 4.36
  Cell population measurements: 83
[8]; A2780CP after cisplatin regimen 5.36
  Cell population measurements: 98
